The subject of the assay is Male Sprague-Dawley rats. The conditions noted are these: six-hour delay.

Structures are written as SMILES. Where two headings read alike, the source gives them in different places.

Turning to `Nc1c2c(nc3ccccc13)CCCC2` [Tacrine, tacrine], the “retention (errors in the retention session)” value is “not” (3 mg/kg s.c. immediately after the sampling phase) and “significantly improved retention” (10 mg/kg s.c. immediately after the sampling phase).

These data come from patent US20060154922A1, “Muscarinic agonists” (ELILILLY AND COMPANY, priority 2003, published 2006).
